What was measured:
Format in all cases: functional
[1] = molecular target: T1, Ecdysone receptor (Aedes aegypti) (UniProt P49880); assay: Fold induction of ecdysone-dependent transactivation in mammalian cell line expressing Aedes aegypti ecdysone receptor at 33 uM
T1 sequence (whole entry): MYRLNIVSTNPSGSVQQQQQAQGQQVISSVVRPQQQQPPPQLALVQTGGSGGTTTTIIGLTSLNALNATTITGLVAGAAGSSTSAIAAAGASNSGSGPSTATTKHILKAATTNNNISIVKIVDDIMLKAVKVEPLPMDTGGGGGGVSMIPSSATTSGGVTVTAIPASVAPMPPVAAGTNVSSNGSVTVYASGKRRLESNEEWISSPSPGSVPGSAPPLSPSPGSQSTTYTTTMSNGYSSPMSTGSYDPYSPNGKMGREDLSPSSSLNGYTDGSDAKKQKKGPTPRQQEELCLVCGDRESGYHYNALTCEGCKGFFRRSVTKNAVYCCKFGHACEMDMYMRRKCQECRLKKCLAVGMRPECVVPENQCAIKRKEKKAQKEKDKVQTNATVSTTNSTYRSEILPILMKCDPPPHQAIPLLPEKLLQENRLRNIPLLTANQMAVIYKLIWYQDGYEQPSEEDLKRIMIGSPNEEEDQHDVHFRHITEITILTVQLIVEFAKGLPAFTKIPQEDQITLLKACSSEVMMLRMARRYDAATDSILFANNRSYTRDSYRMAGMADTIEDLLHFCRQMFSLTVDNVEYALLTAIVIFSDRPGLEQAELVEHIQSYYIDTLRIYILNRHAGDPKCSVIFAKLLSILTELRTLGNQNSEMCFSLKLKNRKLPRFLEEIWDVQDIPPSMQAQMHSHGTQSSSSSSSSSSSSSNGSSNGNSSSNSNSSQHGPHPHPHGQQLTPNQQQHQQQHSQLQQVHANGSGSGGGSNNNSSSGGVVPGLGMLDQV

Ecdysone receptor = molecular target: T2, Ecdysone receptor (Aedes aegypti, UniProt P49880); assay: Effective concentration for ecdysone-dependent transactivation in mammalian cell line expressing Aedes aegypti ecdysone receptor
T2 sequence (P49880 whole entry): T1 sequence (whole entry)

[2] = molecular target: T1, Ecdysone receptor (Aedes aegypti); assay: Ratio of maximal ecdysone-dependent transactivation in cell line expressing Aedes aegypti ecdysone receptor compared to cpd2

Compound	Fold induction [1]	EC50 (Ecdysone receptor)	Rel Max FI [2]
Cc1ccc(N[C@H]2C[C@@H](C)N(C(=O)c3ccccc3C(F)(F)F)c3ccc(C)cc32)cc1	12	> 33.3 µM	0.04
C[C@@H]1C[C@H](Nc2ccc(F)cc2)c2cc(F)ccc2N1C(=O)c1ccc(Cl)cc1	212	0.64 µM	0.7
C[C@@H]1C[C@H](Nc2ccccc2)c2ccccc2N1C(=O)c1ccccc1	20	1.12 µM	0.07
Cc1ccc(N[C@H]2C[C@@H](C)N(C(=O)c3cccc(C)c3)c3ccc(C)cc32)cc1	6	> 33.3 µM	0.01
Cc1cccc(C(=O)N2c3ccc(F)cc3[C@@H](Nc3ccc(F)cc3)C[C@H]2C)c1	686	1.36 µM	0.55
Cc1ccc(N[C@H]2C[C@@H](C)N(C(=O)c3ccccc3F)c3ccc(C)cc32)cc1	5	> 33.3 µM	0.01
Cc1ccc(N[C@H]2C[C@@H](C)N(C(=O)c3ccc(C(F)(F)F)cc3)c3ccc(C)cc32)cc1	69	4.41 µM	0.23
C[C@@H]1C[C@H](Nc2ccc(F)cc2)c2cc(F)ccc2N1C(=O)c1ccccc1	283	1.73 µM	0.76
C[C@@H]1C[C@H](Nc2ccccc2)c2ccccc2N1C(=O)c1ccc(C(F)(F)F)cc1	89	1.18 µM	0.64
C[C@@H]1C[C@H](Nc2ccc(F)cc2)c2cc(F)ccc2N1C(=O)c1cccc(C(F)(F)F)c1	89	1 µM	0.93
C[C@@H]1C[C@H](Nc2ccccc2)c2ccccc2N1C(=O)c1ccccc1C(F)(F)F	1	–	–
Cc1ccc(N[C@H]2C[C@@H](C)N(C(=O)c3cccc(C(F)(F)F)c3)c3ccc(C)cc32)cc1	12	1.84 µM	0.47
CCc1c(OC)cccc1C(=O)NN(C(=O)c1cc(C)cc(C)c1)C(C)(C)C	–	0.44 µM	–
C[C@@H]1C[C@H](Nc2ccccc2)c2ccccc2N1C(=O)c1cccc(C(F)(F)F)c1	28	1.21 µM	0.42
Cc1ccc(C(=O)N2c3ccc(F)cc3[C@@H](Nc3ccc(F)cc3)C[C@H]2C)cc1	91	0.87 µM	0.67
COc1cccc(C(=O)N2c3ccc(F)cc3[C@@H](Nc3ccc(F)cc3)C[C@H]2C)c1	119	1.48 µM	0.98
COc1ccc(C(=O)N2c3ccccc3[C@@H](Nc3ccccc3)C[C@H]2C)cc1	64	1.43 µM	0.44
Cc1ccc(N[C@H]2C[C@@H](C)N(C(=O)c3ccccc3C)c3ccc(C)cc32)cc1	19	8.71 µM	0.04
C[C@@H]1C[C@H](Nc2ccc(F)cc2)c2cc(F)ccc2N1C(=O)c1ccc(C(F)(F)F)cc1	230	0.92 µM	0.63
Cc1ccc(N[C@H]2C[C@@H](C)N(C(=O)c3cccc(F)c3)c3ccc(C)cc32)cc1	102	3 µM	0.27
C[C@@H]1C[C@H](Nc2ccc(F)cc2)c2cc(F)ccc2N1C(=O)c1cccc(F)c1	204	0.99 µM	0.57

Next, values leading:

Fold induction [1]	EC50 (Ecdysone receptor)	Rel Max FI [2]	Compound
0	–	–	COc1ccccc1C(=O)N1c2ccc(C)cc2[C@@H](Nc2ccc(C)cc2)C[C@H]1C
64	11 µM	0.32	C[C@@H]1C[C@H](Nc2ccc(F)cc2)c2cc(F)ccc2N1C(=O)c1ccccc1C(F)(F)F
110	1.14 µM	0.87	COc1ccc(C(=O)N2c3ccc(F)cc3[C@@H](Nc3ccc(F)cc3)C[C@H]2C)cc1
43	2.15 µM	0.39	Cc1ccc(N[C@H]2C[C@@H](C)N(C(=O)c3ccc(Cl)cc3)c3ccc(C)cc32)cc1
9	0.7 µM	0.15	COc1cccc(C(=O)N2c3ccccc3[C@@H](Nc3ccccc3)C[C@H]2C)c1
75	0.75 µM	0.44	C[C@@H]1C[C@H](Nc2ccccc2)c2ccccc2N1C(=O)c1cccc(F)c1
130	0.98 µM	0.43	C[C@@H]1C[C@H](Nc2ccccc2)c2ccccc2N1C(=O)c1ccc(Cl)cc1
121	5 µM	0.26	Cc1ccc(N[C@H]2C[C@@H](C)N(C(=O)c3ccc(C)cc3)c3ccc(C)cc32)cc1
78	3 µM	0.28	C[C@@H]1C[C@H](Nc2ccc(F)cc2)c2cc(F)ccc2N1C(=O)c1ccccc1F
3	> 33.3 µM	0.01	COc1cccc(C(=O)N2c3ccc(C)cc3[C@@H](Nc3ccc(C)cc3)C[C@H]2C)c1
64	0.99 µM	0.42	Cc1ccc(C(=O)N2c3ccccc3[C@@H](Nc3ccccc3)C[C@H]2C)cc1
35	5.4 µM	0.19	Cc1ccc(N[C@H]2C[C@@H](C)N(C(=O)c3ccccc3)c3ccc(C)cc32)cc1
4	> 33.3 µM	0.01	COc1ccccc1C(=O)N1c2ccc(F)cc2[C@@H](Nc2ccc(F)cc2)C[C@H]1C
57	5.32 µM	0.09	COc1ccc(C(=O)N2c3ccc(C)cc3[C@@H](Nc3ccc(C)cc3)C[C@H]2C)cc1
158	3.19 µM	0.5	Cc1ccccc1C(=O)N1c2ccc(F)cc2[C@@H](Nc2ccc(F)cc2)C[C@H]1C
